# Legend:
# [1] = UV-Vis absorption of scytoneman-like compounds; assay type: physicochemical
# From the text: The compounds were isolated from cyanobacteria collected from a small saltern pond located just behind the primary dune in Mrizika, Morocco (GPS coordinates: 32.955807, −8.779638). […] To explore the chemodiversity of the mat, the biomass was freeze-dried (650 g, d.w.) and extracted using a dichloromethane/methanol mixture (2:1). The crude extract was then fractionated by vacuum liquid chromatography using a solvent gradient with increasing polarity from 100% hexanes to 100% ethyl acetate and then to 100% MeOH. […] The filtered solution was subfractionated through flash chromatography using a gradient of hexanes, ethyl acetate to methanol.
# [2] = test system: SY-SH5Y (neuroblastoma cell line); assay: Cytotoxicity tests using the MTT assay; assay type: cell-based; settings: final concentration 10 μg mL^−1
# Experimental: 1% DMSO (v/v) was used as negative control and 20% DMSO (v/v) as a positive control;
# The pure compounds were also tested in cytotoxicity assays using the MTT assay.
# [3] = test system: Staphylococcus aureus (ATCC 29213); assay: Antimicrobial assay, disc diffusion method; assay type: cell-based; settings: final concentration of 15 μg mL^−1; S. aureus ATCC 29213
# Experimental: Kanamycin and ampicillin (15 μg) were used as positive controls.
# The pure compounds were also tested in antimicrobial assays using the disc diffusion method. […] Apart from its sunscreen function, the previously known scytonemins have been associated with anticancer and antioxidative activity, but no antimicrobial activity has ever been reported for any of the scytoneman family of compounds until now.
# cyanobacteria = settings: cited from earlier work
# [4] = Table 1, identification by LC-HRMS analysis
Substance,"Main absorbance regions [1, 4]","Main absorbance regions ([1]; Table 2, UV-Vis spectra)","Max wavelength ([1]; maximum absorption wavelengths, UV-Vis spectra)",cell viability ([2]; 24 h of exposure),cell viability ([2]; 48 h of exposure),antimicrobial activity [3],reduction of the UV-A radiation that penetrates the cells (cyanobacteria)
3′-hydroxy-3-methoxyscytonemin [595.1864],Green/blue,Green/blue,–,–,–,–,–
"3,3′-dihydroxyscytonemin [585.2061]",UVB,UVB,293 nm,–,–,–,–
3′-hydroxyscytonemin,UVA,UVA,–,37.8%,18.3%,presented antimicrobial activity,–
scytonemin,–,–,–,–,–,–,up to 90%

# Source: patent US12233145B2, “Ultra-violet absorbing compounds” (CIIMAR—CENTRO DE INVESTIGACAO MARINHA E AMBIENTAL, priority 2018, dated 2025)
